Reference: patent publication US12329733B2, “Acetyl-leucine or a pharmaceutically acceptable salt thereof for improved mobility and cognitive function” (INTRABIO LTD., priority 2016, dated 2025)

How the values were obtained:
[1] = system: patients with gait disorder; test: quantitative gait analysis (“gait-rite”, video); assay type: in vivo, human
[2] = system: patient with postural imbalance; test: Scale for the Assessment and Rating of Ataxia (SARA); assay type: in vivo, human; details: Example 6: 5 g/day for 1 month; baseline 6.5/40
From the text: The patient was examined clinically by means of the following clinical assessments: maximal distance to walk; timed Up and Go test; Scale for the Assessment and Rating of Ataxia (SARA).

[3] = system: patients with postural imbalance / gait disorder; subjects; test: clinical examination and patient/family reports of balance, gait, dizziness and falls; assay type: in vivo, human; details: for balance (subjective): 5 g/day
From the text: In addition to the mobility assessments disclosed above, mobility in a subject having a mobility disorder associated with ageing may be tested, for example, using assessments of balance and/or through monitoring the number of falls experienced by the subject.

[4] = system: subject suffering from imbalance and gait disorder; test: home setting “get up and go test”; assay type: in vivo, human; details: Example 1: person, 4.5 g/day
Protocol: “Mobility” refers to the ability of a subject to move. Mobility may be assessed in the elderly using one or more simple tests. As illustrated in the Examples, the “get up and go” test is a simple test capable of measuring mobility. In this test, the speed of sit to stand and walking to a target point is analysed, suitably as described in the Examples. For example, the test may begin with the subject sitting in a chair. At the start of the stop clock, the subject should rise unaided and walk to a target point. The target point may be 2-10 m away, optionally 4-6 m away. The stop clock should be stopped upon the subject reaching the target point. Any change in mobility, for example, over time or through treatment, can be monitored by using the “get up and go” test at two or more time points and comparing the results, again as illustrated in the Examples. Other suitable tests for measuring mobility include those used in the Elderly Mobility Scale (EMS), a 20-point validated assessment tool for the assessment of frail elderly subjects (9), considering locomotion, balance and key position changes. The ability of the subject to move was measured in a home setting “get up and go test”. This test involved the subject rising unaided from their chair and walking the length of their living area to their kitchen. […]

[5] = system: patients with cerebellar ataxia of different etiologies; details: in responders, ref (8); cited from earlier work

With `CC(=O)NC(CC(C)C)C(=O)O` (racemic) [acetyl-DL-leucine] the “video analysis of gait” value ([1]; Example 4: 3 weeks after beginning treatment) was “now even able to run”, the “Coefficient of variation (CV) of stride time: CV = (standard deviation/mean) × 100” value ([1]; Example 4: after 3 weeks' treatment, before treatment 1.6) was 1.8 and the “Spreading width (distance between the heel center of one footprint to the line of movement of the other foot)” value ([1]; Example 4: after 3 weeks' treatment, before treatment 9.3) was 8.1 cm. For the same molecule, the “% of the time of two periods in the gait cycle in which both feet at the same time are in contact with the ground” value ([1]; Example 4: after 3 weeks' treatment, before treatment 27.2) was 25.5%, the Cadence ([1]; Example 4: after 3 weeks' treatment, before treatment 92) was 100 steps/minute and the “Step cycle length (distance between two consecutive contacts of a foot on the ground)” value ([1]; Example 4: after 3 weeks' treatment, before treatment 116) was 116 cm. For the same molecule, the “Maximum walking speed (maximal gait velocity)” value ([1]; Example 4: after 3 weeks' treatment, before treatment 141) was 157 cm/s, the “Natural walking speed (self-chosen gait velocity)” value ([1]; Example 4: person, after 3 weeks' treatment, before treatment 88) was 96 cm/s and the self-chosen gait velocity ([1]; Example 5: Day 42, 3 gram per day, from 55 cm/sec at Day 0) was 62 cm/s. The maximal gait velocity ([1]; Example 5: Day 42, 3 gram per day, from 84 cm/sec at Day 0) was 130 cm/s, the SARA [2] was 2 /40 and the “balance after ceasing treatment” value ([3]; Example 1: after one-month course ceased) was “remained good for two weeks then deteriorated”. For the same molecule, the “walking confidence / balance” value ([3]; Example 1: person, 4.5 g/day, by 7-10 days of treatment) was “more confident walking due to improved balance”, the “improvements of first and second months, on further treatment” value ([3]; Example 1: remains on 4.5 g per day) was “have continued” and the “improvements noticed in first month, on second treatment” value ([3]; Example 1: second one-month course, 4.5 g/day) was “rapidly returned”. For the same molecule, the dizziness symptoms ([3]; Example 2: person, balance disorder/senile gait disorder, 3 g/day first week then 5 g/day, Day 14) was “improvement of dizziness symptoms”, the frequency of falls ([3]; Example 2: person, 3 g/day first week then 5 g/day, Day 14) was “significant reduction in the frequency of falls” and the hypokinetic-rigid syndrome ([3]; Example 2: person, Day 14) was “No change”. For the same molecule, the “dizziness symptoms after suspension of treatment” value ([3]; Example 2: treatment suspended Day 56, re-evaluated Day 62) was “increase of dizziness symptoms two days after suspension of treatment”, the “time when improvement began” value ([3]; Example 3: person) was “second week of treatment” and the “dizziness and imbalance (spouse feedback)” value ([3]; Example 3: person, 3 g/day one week then 5 g/day, 22 days after beginning treatment) was “significant reduction of dizziness and imbalance”. The “gait (spouse feedback)” value ([3]; Example 3: person, 22 days after beginning treatment) was “significant improvement of gait”, the “gait and imbalance (patient and child report)” value ([3]; Example 4: person, 3 g/day one week then 5 g/day, 3 weeks after beginning treatment) was “significantly improved” and the “clinical examination of gait and balance” value ([3]; Example 5: Day 42, 3 gram per day) was “significant improvement of gait and balance”. The “spouse report on re-evaluation” value ([3]; Example 5: Day 42, 3 gram per day restarted Day 28) was “dramatic improvement with impact on functioning and quality of living”, the falls ([3]; Example 5: Day 42, four falls over three months before Day 0) was “No further falls were reported” and the “symptoms after medication was stopped” value ([3]; Example 5: medication stopped after two weeks) was “worsening of symptoms”. The “gait (patient and spouse report)” value ([3]; Example 5: patient, progressive gait disorder, 3 gram per day for two weeks) was “considerable improvement of gait”, the “improvements on lower dosage” value ([3]; Example 6: 1 g/1 g/1 g for over 4 months) was “remained unchanged” and the sway ([3]; Example 6: 5 g/day for 1 month) was “became visibly calmer”. The “stance with feet together, tandem stance and gait” value ([3]; Example 6: 5 g/day for 1 month, tandem stance and gait not possible at baseline) was “possible with increased omnidirectional sway”, the “postural stability (subjective)” value ([3]; Example 6: 5 g/day for 1 month, walking and stairs) was “subjectively more postural stable” and the frequency of falls ([3]; Example 6: current state on 1 g/1 g/1 g, 2-3 per month before treatment) was 0-1 /month. For the same molecule, the “falls during therapy period” value ([3]; Example 6: therapy period of 1 month, 2-3 per month before) was “did not record any falls”, the “balance (subjective)” value ([3]; Example 7: 66 M) was “improvement in their balance” and the “balance (subjective)” value ([3]; Example 8: 29 M) was “no difference in balance”. For the same molecule, the “faster than pre-treatment in get up and go test” value [4] was 25%, the “average time taken to rise unaided from chair and walk the length of living area to kitchen” value ([4]; seven consecutive days once treatment had started, prior to treatment 40±3 seconds) was 30 ± 2 s and the “brain metabolism (PET)” value [5] was “increased metabolism in the midbrain and lower brainstem”.
